# Source: patent US20250345383A1, “INTRANASAL ADMINISTRATION OF POLYSULFIDE” (The General Hospital Corporation, priority 2022, published 2025)
# Columns and labels:
# SH-SY5Y cells [1] = assay: Cell viability after OGD/R, SH-SY5Y cells; assay type: cell-based, human
# Experimental: After reoxygenation, cell viability and cell injury were assessed using crystal violet and lactate dehydrogenase (LDH) assays, as previously described^39.
# mice subjected to SCI = assay: Mouse model of spinal cord ischemia (SCI): delayed paraplegia, hindlimb motor function by Basso mouse scale (BMS); assay type: in vivo
# Source text: Adult C57BL/6J mice (12-18 weeks old) of both sexes were purchased from Jackson Laboratory (Bar Harbor, ME, USA). Both male and female mice were used in experiments to investigate the neuroprotective effect of GSSSG on motor function after SCI. […] All mice were housed in a temperature and humidity-controlled room in the animal center with a 12-hour light/dark cycle, and were provided with food and water ab libitum. To permit access by mice that were recovering from surgery, additional food pellets were inserted into hydrated gel placed on the bedding. A randomized paired design was used to minimize the variability between each treatment group. Mice were paired based on weight, age, delivery dates, and when possible, holding cages. After the pairing, mice were randomly assigned to different treatments.
# The surgical procedures to produce delayed paraplegia in mice were performed as previously described^6 (FIG. 2A). Mice were anesthetized with 5% isoflurane in 100% O2 and tracheally intubated with a 20-gauge catheter (Angiocath; Becton Dickinson, Franklin Lakes, NJ, USA). […] The paravertebral muscle temperature was measured using a T-type implantable thermocouple probe (IT-18) and a T-type pod (ADInstruments, Colorado Springs, CO, USA). […] A median sternotomy extended from the apex of the manubrium to the second rib. The aortic arch was gently isolated between the left common carotid artery (LCCA) and the left subclavian artery (LSA), avoiding the vagus nerve and the left recurrent laryngeal nerve. […] After ischemia, the clips were removed in reverse order. Incisions were closed in layers and mechanical ventilation was discontinued. After stable spontaneous respiration was confirmed, mice were extubated.
# The previously described surgical procedures^6 were modified as follows. The respiratory rate during the procedure was increased to 230 breaths/minute, because hyperventilation promotes the occurrence of delayed paraplegia caused by spinal cord ischemia^33. A laser Doppler perfusion monitor (moorVMS-LDF1; Moor Instruments, Millwey, UK) was used to monitor the femoral artery blood flow^28,29. […] To improve the accuracy of surgical procedures, a microscope (Leica MZ95; Leica Microsystems, Buffalo Grove, IL, USA) was used to isolate the aortic arch and place the clips.
# Study drugs were administered intranasally using a single-channel pipettor. Mice were anesthetized with 3% isoflurane using a non-rebreathing circuit with a mouse nose cone (VetEquip, Inc., Livermore, CA, USA). While the drugs were administered, the nose cone was removed and mice were allowed to breathe air. Approximately 6 μL of each drug was administered into the mouse's nostrils and the mouse inhaled the droplets during inspiration. […]
# SH-SY5Y cells [2] = assay: Relative sulfane sulfur levels in SH-SY5Y cells (SSip-1 DA); assay type: cell-based, human; settings: PTN-SSS 10-50 μM; vs vehicle-only treated cells
# Experimental: (§1) Primary cortical neurons or SH-SY5Y cells, a human neuroblastoma cell line (American Type Culture Collection, Manassas, VA, USA), were incubated with SSip-1 DA […] at 37° C. for 20 minutes in the dark. Cells were washed with pre-warmed HBSS containing calcium and magnesium (Thermo Fisher Scientific, Waltham, MA, USA) and then cells were incubated with GSSSG, sodium trisulfide (Na2S3; Dojindo Molecular Technologies, Inc., Rockville, MD, USA), PTN-SSS, or vehicle alone for 20 minutes at 37° C. in the dark. Fluorescence intensities were measured using a microplate reader.
# [3] = test system: sulfane sulfur in olfactory bulb and forebrain, whole spinal cord; assay: Relative sulfane sulfur levels in olfactory bulb and forebrain and whole spinal cord after intranasal PTN-SSS (SSip-1); assay type: in vivo, mouse; settings: 30 minutes after intranasal 50 mg/kg PTN-SSS; vs vehicle alone
# Experimental: At 30 minutes after intranasal administration of 50 mg/kg of PTN-SSS, the olfactory bulb and forebrain and the whole spinal cord were harvested. Tissues were homogenized in HBSS containing […] of SSip-1. The fluorescence intensities of supernatants were measured.
# [4] = Stability of PTN-SSS in solution; assay type: physicochemical; settings: pH 4.0-9.0 at room temperature
# [5] = Water solubility of PTN-SSS; assay type: physicochemical
# [6] = test system: murine primary cortical neurons; assay: Cell viability of murine primary cortical neurons incubated with MPP+ (crystal violet assay); assay type: cell-based, mouse; settings: MPP+ 50 μM, 24 hours
# Experimental: (§2) Cell viability assays was performed to examine cell viabilities of SH-SY5Y cells or murine primary cortical neurons 24 h after the addition of MPP^+ (5 mM for SH-SY5Y, 50 μM for primary cortical neurons) with vehicle (PBS), Na2S (Sigma-Aldrich), Na2S3 (Dojindo Molecular Technologies, Inc), GSSSG (Glutathione trisulfide, Kyowa Hakko Bio Co., Ltd., Tokyo, Japan), LA (α-Lipoic acid, Sigma-Aldrich) or LASSS (α-Lipoic acid trisulfide, Kyowa Hakko Bio Co., Ltd., Tokyo, Japan). Cell viability was measured using the crystal violet assay.
# primary cortical neurons [7] = assay: Cell viability after oxygen and glucose deprivation/reoxygenation (OGD/R), primary cortical neurons; assay type: cell-based, mouse; settings: GSSSG at 30 μM, GSH at 60 μM, GSSG at 30 μM; vs vehicle-only treated cells
# Experimental: Primary cortical neurons were isolated from the cerebral cortices of C57BL/6J mice of both sexes at embryonic day 15, as previously described 39. Primary cortical neurons were maintained at 37° C. in a humidified tissue culture chamber with 5% CO2 and cells were used on day 11 after harvest. […] After reoxygenation, cell viability and cell injury were assessed using crystal violet and lactate dehydrogenase (LDH) assays, as previously described^39.
# SH-SY5Y cells [8] = assay: Cell viability of SH-SY5Y cells incubated with MPP+ (crystal violet assay); assay type: cell-based, human; settings: MPP+ 5 mM, 24 h
# Experimental: as §2
# primary cortical neurons [9] = assay: Relative sulfane sulfur levels in primary cortical neurons (SSip-1 DA); assay type: cell-based, mouse; settings: incubation at 10 μM for 20 minutes; relative to untreated neurons
# Experimental: Primary cortical neurons were isolated from the cerebral cortices of C57BL/6J mice of both sexes at embryonic day 15, as previously described 39. Primary cortical neurons were maintained at 37° C. in a humidified tissue culture chamber with 5% CO2 and cells were used on day 11 after harvest.
# as §1
# [10] = LC-MS/MS of ^34S-labeled GSSSG and sulfane sulfur species in CNS and plasma after intranasal GS^34SSG; assay type: in vivo, mouse
# Experimental: We used LC-MS/MS analysis to measure the amount of ^34S-labeled GSSSG ([^32S2, ^34S]GSSSG) in the CNS and plasma after intranasal administration of GS^34SSG, an isotope of endogenous GSSSG^9,35,36. The ratios of ^34S-labeled sulfane sulfur species ([^32S, ^34S]GSSH, [^32S, ^34S]cysteine hydropersulfide (CysSSH), and [^32S2, ^34S]cysteine trisulfide (CysSSSCys)) to endogenous sulfane sulfur species ([^32S2]GSSH, [^32S2]CysSSH, and […]) were also quantitatively evaluated. At 30 minutes after intranasal administration of 50 mg/kg of GS^34SSG, blood was obtained and four different central nervous tissues were harvested: olfactory bulb and forebrain; brainstem; cervical and thoracic spinal cord, and lumbar spinal cord. A total of 30 mg of each tissue was homogenized in 300 μl of ice-cold methanol solution containing 5 mM β-(4-hydroxyphenyl)ethyl iodoacetamide (HPE-IAM; Santa Cruz Biotechnology, Dallas, TX, USA). Twenty-five μl of plasma was mixed with 75 μl of ice-cold methanol solution containing 5 mM HPE-IAM. Samples were incubated for 20 minutes at 37° C. in the dark. After centrifugation (14,000×g for tissues, 1,870×g for plasma, 10 minutes, 4° C.), the supernatant was separated and diluted with 0.1% formic acid for LC-MS/MS analysis, and the pellet was sonicated to measure the protein concentration by BCA assay. The amount of [^32S2, ^34S]GSSSG was quantified in selective reaction monitoring (SRM) with precursor ion (647.14 m/z), product ion (389.1 m/z), and higher energy collisional dissociation (21 v). The ratios of [^32S, ^34S]GSSH to [^32S2]GSSH, [^32S, ^34S]CysSSH to [^32S2]CysSSH, and [^32S2, ^34S]CysSSSCys to [^32S3]CysSSSCys were calculated from their peak area measured by Dionex UltiMate 3000 RS UPLC-Orbitrap Exploris 480 mass spectrometer (Thermo Fisher Scientific, Waltham, MA, USA). In brief, samples were subjected to the UPLC system with a Hypersil Gold C-18 (100×2.1 mm, 3.0 μm, Thermo Fisher Scientific, Waltham, MA, USA) column and were then eluted by a linear methanol gradient of the mobile phase (0-90%, 15 minutes) in the presence of 0.1% formic acid at a flow rate of 0.2 ml/minute at 40° C. The raw data were analyzed by Compound Discoverer 3.3 software (Thermo Fisher Scientific, Waltham, MA, USA). The molecular weights of these sulfane sulfur species combined with HPE-IAM were determined based on previous reports^9,11,37.
# [11] = 30 minutes after intranasal 50 mg/kg GS^34SSG, mean ± SD
smiles,measurement,setting,value
"CC(C)(CO)[C@@H](O)C(=O)NCCC(=O)NCCSSSCCNC(=O)CCNC(=O)[C@H](O)C(C)(C)CO [PTN-SSS, pantethine trisulfide]","SH-SY5Y viability after OGD/R, crystal violet assay","SH-SY5Y cells [1]; PTN-SSS at 10 μM, 25 μM, or 50 μM, vs vehicle-only treated cells",significantly improved
same,"SH-SY5Y viability after OGD/R, crystal violet assay",SH-SY5Y cells [1]; PTN-SSS at 100 μM,did not improve cell viability
same,male mice rescued from delayed paraplegia,"mice subjected to SCI; PTN-SSS study, n=9 per group, intranasal PTN-SSS 50 mg/kg or PTN 47.3 mg/kg at 0, 8, 23, 32 hours after surgery",66%
same,sulfane sulfur levels in SH-SY5Y cells,SH-SY5Y cells [2],increased significantly
same,sulfane sulfur levels in the olfactory bulb and forebrain and the whole spinal cord,[3],increased sulfane sulfur levels
same,stable in solution,[4],at least 4 days
same,water solubility,[5],> 50 mg/mL
"O=C(O)CCCCC1CCSSS1 (centres unmarked) [LA-SSS, 1,2,3-trithiane-4-pentanoic acid]",protection of murine primary cortical neurons from the effects of MPP+ treatment,[6],protected
"N[C@@H](CCC(=O)N[C@@H](CS)C(=O)NCC(=O)O)C(=O)O [GSH, glutathione, reference compound]",mice in which development of delayed paraplegia was prevented,"mice subjected to SCI; male mice, n=11 per group, intranasal at 0, 8, 23, 32 hours after surgery, GSSSG 50 mg/kg, GSH 45.2 mg/kg",27%
same,"cell viability after OGD/R, crystal violet assay (GSSSG, GSH, GSSG comparison)",primary cortical neurons [7],did not improve cell viability
"[Na+].[Na+].[S-]S[S-] [Na2S3, sodium trisulfide, reference compound]",viability of MPP+-treated SH-SY5Y cells,SH-SY5Y cells [8]; 10 μM each,increased the viability
same,levels of intracellular sulfane sulfur in primary cortical neurons,primary cortical neurons [9],increased levels of intracellular sulfane sulfur
N[C@@H](CCC(=O)N[C@@H](CS[34S]SC[C@H](NC(=O)CC[C@H](N)C(=O)O)C(=O)NCC(=O)O)C(=O)NCC(=O)O)C(=O)O [GS^34SSG],"[^32S2, ^34S]GSSSG concentration in plasma",[10]; [11],25 ± 10 nM
same,"[^32S2, ^34S]GSSSG in brainstem",[10]; [11],226±101 pmol/mg protein
same,"[^32S2, ^34S]GSSSG in cervical and thoracic spinal cord",[10]; [11],414±98 pmol/mg protein
same,"[^32S2, ^34S]GSSSG in lumbar spinal cord",[10]; [11],317±111 pmol/mg protein
same,"[^32S2, ^34S]GSSSG in olfactory bulb and forebrain",[10]; [11],128±67 pmol/mg protein
same,"ratio of [^32S2, ^34S]CysSSSCys to [^32S3]CysSSSCys in brain and spinal cord",[10]; [11],31.8±9.8
same,"ratio of [^32S, ^34S]GSSH to [^32S2]GSSH in brain and spinal cord",[10]; [11],6.5±2.8
same,concentration of ^34S-labeled GSSSG in the central nervous system,"[10]; 30 minutes after intranasal GS^34SSG, all CNS tissues",268±140 pmol/mg protein
same,level of ^34S-labeled CysSSH in lumbar spinal cord,"[10]; after intranasal GS^34SSG, worked out from previously reported endogenous CysSSH level",~18 pmol/mg protein
same,level of ^34S-labeled GSSH in lumbar spinal cord,"[10]; after intranasal GS^34SSG, worked out from previously reported endogenous GSSH level","approximately 1,600 pmol/mg protein"
[Na+].[Na+].[S-2] [Na2S],viability of SH-SY5Y cells treated with MPP+,SH-SY5Y cells [8]; Na2S doses between 1 and 100 μM,did not improve the viability
